This passage reports Ki and EC50 results from patent US8815919B2, “Oxadiazole derivatives” (Merck Serono SA, priority 2009, dated 2014).

Molecules are shown by their SMILES. Counter-ions that a name gives are not always drawn. Like-named read-outs stand apart in the source and are kept apart here.

One assay concerns the target S1P3 (Homo sapiens, UniProt Q99500). Kind of assay: Receptor binding assay, [33P]sphingosine 1-phosphate competition, S1P3 membranes, WGA SPA beads. How it is done:
(§1) Membranes were prepared from CHO cells expressing S1P1 or S1P3 for use in ligand and […] binding studies. Cells were suspended in 50 mM TRIS, pH 7.4, 2 mM EDTA, 250 mM Sucrose (buffer A) and 1× Complete protease inhibitor cocktail (Roche), and disrupted at 4° C. by N2 decompression using a cell disruption bomb (Parr Instrument). Following centrifugation at 1000 RPM for 10 min at 4° C., the supernatant was diluted (2×) in buffer A and centrifuged again at 19000 RPM for 75 min at 4° C. The pellet was then suspended in 10 mM HEPES, pH 7.4, 1 mM EDTA, 250 mM Sucrose (Buffer B), and 1× Complete EDTA-free protease inhibitor cocktail and homogenized using a potter. Membranes were flash frozen in liquid N2 and stored at −80° C.
(§2) Receptor binding assay: [33P]sphingosine 1-phosphate (3000 Ci/mmol; American Radiolabeled Chemicals, Inc.) was added to test compounds in 20% DMSO by competition. Membranes and WGA SPA beads (GE Healthcare) were added to give a final volume of 100 μl in 96-well plates or 50 μl in 384-well plates with assay concentrations of […] [33P]sphingosine 1-phosphate (respectively for S1P1 or S1P3), 50 mM HEPES, pH 7.5, 5 mM MgCl2, 100 mM NaCl, 0.4% fatty acid-free BSA, 1-5 μg/well of proteins in 96-well plates vs 0.6-1 μg/well of proteins in 384-well plates and 100 μg/well of WGA SPA beads in 96-well plates vs 75 μg/well of WGA SPA beads in 384-well plates. Binding was performed for 60 min at RT on a shaker and bound radioactivity was measured on a PerkinElmer 1450 MicroBeta counter. Triplicate samples were averaged and normalized as percentage of inhibition relative to total binding (only DMSO in well) and nonspecific binding (1000-fold excess of unlabeled S1P). Binding data were analyzed using the GraphPad Prism program or Genedata software.

Assay [1] addresses T1, S1P1 (Homo sapiens, UniProt P21453). As to the kind of experiment: Receptor binding assay, [33P]sphingosine 1-phosphate competition, S1P1 membranes, WGA SPA beads. On the procedure: as §1, §2
Target sequence in this assay (P21453 whole entry, species assumed): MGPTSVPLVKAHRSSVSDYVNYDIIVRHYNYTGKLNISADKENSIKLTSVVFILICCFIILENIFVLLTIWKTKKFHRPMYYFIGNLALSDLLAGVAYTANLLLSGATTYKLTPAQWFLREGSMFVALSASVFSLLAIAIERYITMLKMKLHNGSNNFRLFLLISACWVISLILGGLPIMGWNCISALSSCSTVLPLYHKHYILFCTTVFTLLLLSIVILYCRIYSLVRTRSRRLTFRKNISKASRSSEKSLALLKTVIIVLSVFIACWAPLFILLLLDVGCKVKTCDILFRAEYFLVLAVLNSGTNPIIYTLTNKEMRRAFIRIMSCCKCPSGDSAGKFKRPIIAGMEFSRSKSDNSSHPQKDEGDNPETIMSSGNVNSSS
For assay [2], the target named is T1, S1P1. As to the kind of experiment: S1P1 internalization assay in S1P1-U2OS cells (S1P1-EGFP), cell imaging. The assay is classed as cell-based. On the set-up: host or cells: U2OS (human bone osteosarcoma epithelial cells), CMV promoter, geneticin selection. The following applies: 1 hour incubation. How it is done:
Cellular functional assays: Internalization of Sphingosine-1-phosphate receptor 1 (S1P1) in a human Cell line (U2OS) in a 384-well format using a Cell Imaging analysis. • Jo, E.; Sanna, M. G.; Gonzalez-Cabrera, P. J.; Thangada, S.; Tigyi, S.; Osborne, D. A.; Hla, T.; Parrill, A. L.; Rosen, H. Chem. Biol. 2005, 12, 703
The S1P1 internalization assay was performed in 384 well plates (Corning® 384 black with clear bottom 3712) using S1P1-U2OS cells from Biolmage (C039A), a human epithelial cell line (Human Bone Osteosarcoma Epithelial Cells). These cells expressed the human S1P1 Receptor fused to the green fluorescent protein (EGFP). A standard CMV promoter (cytomegalovirus promoter) controls the expression of S1P1-EGFP and continuous expression was maintained by addition of geneticin to the culture medium.
S1P1 Receptor desensitization induced the internalization of the membrane-localized S1P1-EGFP fusion protein to endosomes, which can be monitored by cell imaging analysis. The cells are plated in low serum medium (Dulbecco's Modified Eagle Medium (DMEM) with Glutamax-1 and high glucose, 1% Penicillin/Streptomycin, 1% Fetal Calf Serum (FCS), 0.5 mg/ml Geneticin) overnight.
The next day, S1P1-U2OS cells are incubated in 20 μl serum free medium (DMEM with Glutamax-1 and high glucose, 0.1% of fatty-acid free Bovin Serum Albumin (BSA), 10 mM, N′-2-Hydroxyethylpiperazine-N′-2 ethanesulphonic acid (HEPES) 1M) for 2 hours at 37° C./5% CO2. The cells are then treated with 4 μl compounds/agonists (6×/3% DMSO) for a total volume of 24 μl, and plates are incubated for 1 hour at 37° C./5% CO2.
S1P1-U2OS cells are fixed with 25 μl Paraformaldehyde 8% and stained with Hoechst 33345 dye (1:1000) for 20 minutes.
They were then washed 3 times with Phosphate Buffered Saline (PBS) and plates are sealed. The internalization of the receptor S1P1-EGFP is measured on Cellomics by calculating the “spot count per object” (“object” corresponds to nuclear and “spot” corresponds to S1P1-EGFP receptor). Internalization data were observed thanks to vHCS View and analyzed using Genedata® software.
Target sequence in this assay (P21453 whole entry): as the sequence (P21453 whole entry, species assumed) above

[3] abbreviates: 384 well-plate, read-out: S1P3 binding Ki (M) (384 well-plate).
[4] abbreviates: 384 well-plate, read-out: S1P1 binding Ki (M) (384 well-plate).
[5] abbreviates: 96 well-plate, read-out: S1P3 binding Ki (M) (96 well-plate).
The mark [6] stands for this setting: 96 well-plate, read-out: S1P1 binding Ki (M) (96 well-plate).

S1P3, sequence (Q99500 whole entry, species assumed): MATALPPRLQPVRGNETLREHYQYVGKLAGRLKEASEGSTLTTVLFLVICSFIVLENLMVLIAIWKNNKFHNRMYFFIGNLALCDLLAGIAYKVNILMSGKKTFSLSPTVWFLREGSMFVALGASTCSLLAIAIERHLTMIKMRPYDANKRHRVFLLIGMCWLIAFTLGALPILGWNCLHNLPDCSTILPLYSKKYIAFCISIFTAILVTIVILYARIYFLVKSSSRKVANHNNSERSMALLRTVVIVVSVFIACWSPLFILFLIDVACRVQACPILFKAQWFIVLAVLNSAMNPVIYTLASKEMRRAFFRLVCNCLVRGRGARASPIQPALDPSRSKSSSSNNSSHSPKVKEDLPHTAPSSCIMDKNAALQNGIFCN

`COCc1cc(-c2nc(-c3ccc(CN(C)CC(=O)O)cc3)no2)ccc1-c1cc(F)ccc1C` [Example 127, N-(4-{5-[5′-fluoro-2-(methoxymethyl)-2′-methylbiphenyl-4-yl]-1,2,4-oxadiazol-3-yl}benzyl)-N-methylglycine, hydrochloride salt]: the Ki – broadly, the equilibrium dissociation constant of an inhibitor or competing ligand from its target – at S1P3 (setting [3]) turned out to be 7.6e-07 M; at S1P1 [1] (setting [4]), 1.12e-09 M. In addition, at S1P1 [2], the midpoint of the response, the EC50, lay at 8.68 nM.
The like results for `COCc1cc(-c2nc(-c3ccc(CN(C)CC(=O)O)c(Cl)c3)no2)ccc1-c1ccccc1C` [Example 128, 2-((4-(5-(2-(methoxymethyl)-2′-methylbiphenyl-4-yl)-1,2,4-oxadiazol-3-yl)-2-chlorobenzyl)(methyl)amino)acetic acid] were, in that order, 5.66e-07 M, 1.45e-09 M and 13.3 nM.
Take `COCc1cc(-c2nc(-c3cccc(CN(C)CC(=O)O)c3)no2)ccc1N1CCCC1C` (stereo not drawn) [Example 34, N-(3-{5-[3-(methoxymethyl)-4-(2-methylpyrrolidin-1-yl)phenyl]-1,2,4-oxadiazol-3-yl}benzyl)-N-methylglycine]: the Ki on S1P3 (setting [5]) was found to be 3.03e-07 M; at S1P1 [1] (setting [6]), 1.18e-10 M. For the same compound, the EC50 (as a rule, the concentration giving half of the maximal effect) at S1P1 [2] was determined as 13.5 nM.
Regarding `COCc1cc(-c2nc(-c3ccc(CNCC(=O)O)cc3C)no2)ccc1-c1ccccc1C` [Example 106, 2-(4-(5-(2-(methoxymethyl)-2′-methylbiphenyl-4-yl)-1,2,4-oxadiazol-3-yl)-3-methylbenzylamino)acetic acid], the Ki on S1P3 (setting [5]) is 1.59e-07 M; at S1P3 (setting [3]), 2.96e-07 M; on S1P1 [1] (setting [4]) it was 4.66e-10 M. The same compound registered an EC50 at S1P1 [2] of 4.12 nM.
`COCc1cc(-c2nc(-c3cccc(CN(CCO)CCO)c3)no2)ccc1-c1ccccc1C` [Example 40, 2,2′-[(3-{5-[2-(methoxymethyl)-2′-methylbiphenyl-4-yl]-1,2,4-oxadiazol-3-yl}benzyl)imino]diethanol]: the Ki on S1P3 (setting [5]) came out at 5.35e-07 M; on S1P3 (setting [3]), 9.69e-07 M; on S1P1 [1] (setting [6]), 4.52e-10 M. In addition, it took 18.2 nM to reach a half-maximal effect on S1P1 [2] (EC50).
As for `COCc1cc(-c2nc(-c3ccc(CN(C)CC(=O)O)cc3)no2)ccc1-c1ccccc1Cl` [Example 118, N-(4-{5-[2′-chloro-2-(methoxymethyl)biphenyl-4-yl]-1,2,4-oxadiazol-3-yl}benzyl)-N-methylglycine, hydrochloride salt], the Ki is 5.67e-07 M at S1P3 (setting [3]) and 1.1e-09 M at S1P1 [1] (setting [4]). This compound registered an EC50 at S1P1 [2] of 9.94 nM.
In the case of `COCc1cc(-c2nc(-c3ccc(CN(C)CC(=O)O)c(F)c3)no2)ccc1-c1ccccc1Cl` [Example 119, N-(4-{5-[2′-chloro-2-(methoxymethyl)biphenyl-4-yl]-1,2,4-oxadiazol-3-yl}-2-fluorobenzyl)-N-methylglycine, hydrochloride salt], the inhibition constant (Ki) on S1P3 (setting [3]) stood at 3.83e-07 M; at S1P1 [1] (setting [4]), 9.55e-10 M. At S1P1 [2], this compound came in with an EC50 of 11.5 nM.
Regarding `COCc1cc(-c2nc(-c3ccc(CN(C)CC(=O)O)cc3C(F)(F)F)no2)ccc1-c1ccccc1C` [Example 143, 2-((4-(5-(2-(methoxymethyl)-2′-methylbiphenyl-4-yl)-1,2,4-oxadiazol-3-yl)-3-(trifluoromethyl)benzyl)(methyl)amino)acetic acid], the Ki is 1.83e-06 M at S1P3 (setting [3]) and 2.32e-09 M on S1P1 [1] (setting [4]). This compound displayed an EC50 on S1P1 [2] of 85.5 nM.
Regarding `COCc1cc(-c2nc(-c3cccc(CN(C)CC(=O)O)c3)no2)ccc1-c1ccccc1` [Example 33], the results for the Ki on S1P3 (setting [5]) and on S1P1 [1] (setting [6]) were 6.24e-08 M and 1.83e-10 M, respectively. Besides, it took 6.96 nM to reach a half-maximal effect on S1P1 [2] (EC50).
On to `COCc1cc(-c2nc(-c3cccc(CN(C)CC(=O)O)c3)no2)ccc1-c1cc(F)ccc1C` [Example 37, N-(3-{5-[5′-fluoro-2-(methoxymethyl)-2′-methylbiphenyl-4-yl]-1,2,4-oxadiazol-3-yl}benzyl)-N-methylglycine, hydrochloride salt], for which the results for the Ki at S1P3 (setting [5]) and on S1P1 [1] (setting [6]) were 6.34e-08 M and 3.33e-10 M, respectively. For the same compound, the response on S1P1 [2] was half-maximal at 6.56 nM (EC50).
For `CC1CCCCN1c1ccc(-c2nc(-c3cc(F)cc(CN(C)CC(=O)O)c3)no2)cc1C(F)(F)F` (stereo not drawn) [Example 56, N-(3-fluoro-5-{5-[4-(2-methylpiperidin-1-yl)-3-(trifluoromethyl)phenyl]-1,2,4-oxadiazol-3-yl}benzyl)-N-methylglycine, hydrochloride salt], the results for the inhibition constant (Ki) at S1P3 (setting [5]) and at S1P1 [1] (setting [6]) were 3.79e-08 M and 3.25e-10 M, respectively. On S1P1 [2], this compound had a 50% effective concentration (EC50) of 20.2 nM.
Consider `COCc1cc(-c2nc(-c3ccc(CNCC(=O)O)c(F)c3)no2)ccc1-c1ccccc1F` [Example 82, N-(2-fluoro-4-{5-[2′-fluoro-2-(methoxymethyl)biphenyl-4-yl]-1,2,4-oxadiazol-3-yl}benzyl)glycine, hydrochloride salt], for which the Ki is 4.66e-08 M on S1P3 (setting [5]), 5.24e-08 M on S1P3 (setting [3]), 5.42e-11 M at S1P1 [1] (setting [6]) and 3.74e-10 M on S1P1 [1] (setting [4]). A half-maximal effect at S1P1 [2] (EC50) was put at 1.73 nM.
On the same counts, the results for `COCc1cc(-c2nc(-c3ccc(CN(C)CC(=O)O)cc3)no2)ccc1-c1ccccc1F` [Example 54, N-(4-{5-[2′-fluoro-2-(methoxymethyl)biphenyl-4-yl]-1,2,4-oxadiazol-3-yl}benzyl)-N-methylglycine, hydrochloride salt] are 3.21e-07 M, 2.59e-07 M, 3.04e-10 M, 9.76e-10 M and 6.36 nM.
Take `CCOc1cc(-c2nc(-c3ccc(CN(C)CC(=O)O)c(F)c3)no2)ccc1-c1ccccc1C` [Example 92, N-{4-[5-(2-ethoxy-2′-methylbiphenyl-4-yl)-1,2,4-oxadiazol-3-yl]-2-fluorobenzyl}-N-methylglycine, hydrochloride salt]: the Ki on S1P3 (setting [5]) came to 9.91e-08 M; on S1P1 [1] (setting [6]), 1.72e-10 M. This compound also gave a 50% effective concentration (EC50) on S1P1 [2] of 7.91 nM.
With `COCc1cc(-c2nc(-c3cc(F)c(C(=O)NCCC(=O)O)cc3F)no2)ccc1-c1ccccc1C` [Example 47, N-(2,5-difluoro-4-{5-[2-(methoxymethyl)-2′-methylbiphenyl-4-yl]-1,2,4-oxadiazol-3-yl}benzoyl)-beta-alanine], the Ki came to 4.03e-07 M at S1P3 (setting [5]), 5.2e-07 M at S1P3 (setting [3]) and 8.5e-10 M on S1P1 [1] (setting [6]). At S1P1 [2], this compound displayed an EC50 of 20.2 nM.
On to `Cc1cc(-c2nc(-c3ccc(CN(C)CC(=O)O)cc3)no2)ccc1-c1ccccc1C(F)F` [Example 137, N-(4-{5-[2′-(difluoromethyl)-2-methylbiphenyl-4-yl]-1,2,4-oxadiazol-3-yl}benzyl)-N-methylglycine, hydrochloride salt], for which the values for the Ki on S1P1 [1] (setting [6]) and on S1P1 [1] (setting [4]) were 8.55e-10 M and 2.37e-09 M, respectively. The compound further gave an EC50 at S1P1 [2] of 28.9 nM.
Regarding `COCc1cc(-c2nc(-c3cccc(CCN(C)CC(=O)OC(C)(C)C)c3)no2)ccc1-c1ccccc1C` [Example 75], the Ki on S1P1 [1] (setting [6]) was found to be 3.04e-09 M. Besides, the midpoint of the response at S1P1 [2], the EC50, lay at 195 nM.
